Measurements reported in the supplement of paper PMC12613149.

Legend:
[1] = collision cross section (TIMS, N2 drift gas) of the primary ion; higher = larger gas-phase ion size
[2] = reversed-phase LC retention time (C18, 15 min MeOH gradient); higher = more hydrophobic / later elution
[3] = ionization mode: ESI+, ion species: [M+H]+
[4] = ionization mode: ESI-, ion species: [M-H]-
[5] = ionization mode: ESI+, ion species: [M]+

| SMILES | collision cross section [1, 3] [Å²] | collision cross section [1, 4] [Å²] | reversed-phase LC retention time [2, 3] [min] | reversed-phase LC retention time [2, 4] [min] | collision cross section [1, 5] [Å²] | reversed-phase LC retention time [2, 5] [min] |
| --- | --- | --- | --- | --- | --- | --- |
| CC(=O)CC(c1ccccc1)c1c(O)c2ccccc2oc1=O (stereo not drawn) [Warfarin] | 168.14 | 171.91 | 14.1 | 10.1 | – | – |
| CCCCCCOc1ccc(-c2nc(-c3ccccc3)nc(-c3ccccc3)n2)c(O)c1 [2-(4,6-Diphenyl-1,3,5-triazine-2-yl)-5-(hexyloxy)-phenol] | 221.42 | – | 21.2 | – | – | – |
| CCNc1nc(NCC)nc(SC)n1 [Simetryn] | 149.02 | – | 11.6 | – | – | – |
| O=S(=O)(O)C(F)(F)C(F)(F)C(F)(F)C(F)(F)C(F)(F)F [Perfluoropentanesulfonic acid] | – | 141.48 | – | 12.8 | – | – |
| N#Cc1ccc(C/C(=N\NC(=O)Nc2ccc(OC(F)(F)F)cc2)c2cccc(C(F)(F)F)c2)cc1 [Metaflumizone] | 213.54 | 221.65 | 16.8 | 17.3 | – | – |
| COCCOCCOCCO [2-(2-(2-Methoxyethoxy)ethoxy)ethanol] | 135.18 | – | 10.6 | – | – | – |
| CC12CCC(=O)C=C1CCC1C2CCC2(C)C(C(=O)CO)CCC12 (stereo not drawn) [21-Hydroxyprogesterone] | 183.52 | – | 14.5 | – | – | – |
| O=C(O)Cc1ccccc1Nc1c(Cl)cccc1Cl [Diclofenac] | 159.21 | 161.99 | 15.3 | 13.3 | – | – |
| CCCCC(CC)COC(=O)c1ccc(N(C)C)cc1 (stereo not drawn) | 185.61 | – | 17.9 | – | – | – |
| CCCCC(CC)COC(=O)CC(C(=O)OCC(CC)CCCC)S(=O)(=O)O (stereo not drawn) [Dioctylsulfosuccinate] | 222.09 | 208.23 | 17.1 | 17.1 | – | – |
| CCCCCCS(=O)(=O)O [1-Hexanesulfonic acid] | – | 137.49 | – | 9.04 | – | – |
| c1ccc2ncccc2c1 [Quinoline] | 118.24 | – | 9.66 | – | – | – |
| Clc1ccc2n[nH]nc2c1 [5-Chlorobenzotriazole] | – | 120.9 | – | 9.28 | – | – |
| O=C(O)c1cc(C(=O)O)cc([N+](=O)[O-])c1 [5-Nitroisophthalic acid] | – | 137.91 | – | 0.96 | – | – |
| COc1ccc(CCN(C)CCCC(C#N)(c2ccc(OC)c(OC)c2)C(C)C)cc1OC (stereo not drawn) [Verapamil] | 208.22 | – | 12.2 | – | – | – |
| CC(CCc1ccccc1)NCC(O)c1ccc(O)c(C(N)=O)c1 (stereo not drawn) [Labetalol] | 176.34 | – | 10.5 | – | – | – |
| O=[PH]1Oc2ccccc2-c2ccccc21 (stereo not drawn) [3,4,5,6-Dibenzo-1,2-oxaphosphane-2-oxide] | – | 144.27 | – | 8.76 | – | – |
| CC(=O)Nc1ccc(S(=O)(=O)Nc2cc(C)on2)cc1 [Acetylsulfamethoxazole] | 169.12 | 165.1 | 9.53 | 6.92 | – | – |
| CC[C@@H](C(=O)[C@@H](C)[C@@H](O)[C@H](C)[C@@H]1O[C@@H]([C@@H](CC)C(=O)O)CC[C@@H]1C)[C@H]1O[C@]2(C=C[C@@H](O)[C@]3(CC[C@@](C)([C@H]4CC[C@](O)(CC)[C@H](C)O4)O3)O2)[C@H](C)C[C@@H]1C [Salinomycin] | – | 263.17 | – | 18.5 | – | – |
| O=C(O)C1C(C(=O)O)C2(Cl)C(Cl)=C(Cl)C1(Cl)C2(Cl)Cl (stereo not drawn) | – | 159.01 | – | 10.3 | – | – |
| O=C(O)C(F)(F)C(F)(F)C(F)(F)OC(F)(F)F [Perfluoro-4-methoxybutanoic acid] | – | 133.26 | – | 11.4 | – | – |

| SMILES | collision cross section [1, 3] [Å²] | collision cross section [1, 4] [Å²] | reversed-phase LC retention time [2, 3] [min] | reversed-phase LC retention time [2, 4] [min] | collision cross section [1, 5] [Å²] | reversed-phase LC retention time [2, 5] [min] |
| --- | --- | --- | --- | --- | --- | --- |
| CC1=NNC(=O)N(/N=C/c2cccnc2)C1 [Pymetrozine] | 153.68 | – | 5.8 | – | – | – |
| O=C(OC1CCCCC1)c1ccccc1C(=O)OC1CCCCC1 [Dicyclohexylphthalate] | 187.61 | – | 17.5 | – | – | – |
| COC=C(C(=O)OC)c1ccccc1Oc1cc(Oc2ccccc2C#N)ncn1 [Azoxystrobin] | 196.56 | – | 13.8 | – | – | – |
| CC(C)CC(C)CC(C)c1ccc(O)cc1 (stereo not drawn) [Nonylphenol_isomers] | – | 161.38 | – | 17.9 | – | – |
| N#Cc1cc(Br)c(O)c(Br)c1 [3,5-Dibromo-4-hydroxybenzonitrile] | – | 129.33 | – | 8.01 | – | – |
| CCCCCCCCCCCCc1ccccc1S(=O)(=O)O [Dodecylbenzenesulfonic acid] | – | 185.13 | – | 17.3 | – | – |
| C[N+](C)(C)Cc1ccccc1 [Benzyltrimethylammonium] | – | – | – | – | 129.9 | 5.04 |
| CCC1OC(=O)C(C)C(OC2CC(C)(OC)C(O)C(C)O2)C(C)C(OC2OC(C)CC(N(C)C)C2O)C(C)(O)CC(C)CN(C)C(C)C(O)C1(C)O (stereo not drawn) [Azithromycin] | 264.86 | – | 10.9 | – | – | – |
| CCNc1nc(NCC)[nH]c(=O)n1 [Simazine 2-Hydroxy] | 140.79 | 140.22 | 7.22 | 8.55 | – | – |
| Cc1cccc(C)c1N(Cn1cccn1)C(=O)CS(C)=O (stereo not drawn) [Metazachlor BH 479-11] | 163.01 | – | 10.3 | – | – | – |
| CCN(CC)C(=O)c1cccc(C(=O)O)c1 [DEET carboxylic acid] | 151.03 | 157.09 | 10.8 | 8.24 | – | – |
| O=C(O)c1ccc(-c2ccccc2-c2nnn[nH]2)cc1 [Valsartan acid] | 161.62 | 162.3 | 11.2 | 6.27 | – | – |
| C[C@]12CCC(=O)C=C1CC[C@@H]1[C@@H]2[C@@H](O)C[C@]2(C)C(=O)CC[C@@H]12 [4-Androsten-11beta-ol-3,17-dione] | 174.44 | – | 12.8 | – | – | – |
| CCCN(CCOc1c(Cl)cc(Cl)cc1Cl)C(=O)NC=O | 174.76 | – | 15.7 | – | – | – |
| CCC(C)c1cc([N+](=O)[O-])cc([N+](=O)[O-])c1O (stereo not drawn) [Dinoseb] | – | 149.61 | – | 12.3 | – | – |
| Cc1cc(C(F)(C(F)(F)F)C(F)(F)F)ccc1NC(=O)c1cccc(I)c1C(=O)NC(C)(C)CS(C)(=O)=O [Flubendiamide] | – | 222.96 | – | 15.8 | – | – |
| Nc1ccc(S(=O)(=O)Nc2ccccn2)cc1 [Sulfapyridine] | 154.05 | 155.15 | 6.69 | 6.7 | – | – |
| NC(CC(=O)N1CCn2c(nnc2C(F)(F)F)C1)Cc1cc(F)c(F)cc1F (stereo not drawn) [Sitagliptin] | 192.92 | 182.72 | 9.57 | 12.1 | – | – |
| Cc1c(N)c(=O)n(-c2ccccc2)n1C [4-Aminoantipyrine] | 142.4 | – | 7.19 | – | – | – |
| CON(C)C(=O)Nc1ccc(Cl)c(Cl)c1 [Linuron] | 152.6 | 149.38 | 13.7 | 14 | – | – |
| O=C(O)c1ccccc1C(=O)OCc1ccccc1 [Monobenzyl phthalate] | 155.89 | 159.96 | 17.1 | 10.7 | – | – |

| SMILES | collision cross section [1, 3] [Å²] | collision cross section [1, 4] [Å²] | reversed-phase LC retention time [2, 3] [min] | reversed-phase LC retention time [2, 4] [min] | collision cross section [1, 5] [Å²] | reversed-phase LC retention time [2, 5] [min] |
| --- | --- | --- | --- | --- | --- | --- |
| CNC(=O)c1cc(Cl)cc(C)c1NC(=O)c1cc(Br)nn1-c1ncccc1Cl [Chlorantraniliprole] | 199.14 | 197.51 | 13.5 | 13.8 | – | – |
| NCC1(CC(=O)O)CCCCC1 [Gabapentin] | 139.22 | – | 7.2 | – | – | – |
| CCCCCCCCCCCCCC[N+](C)(C)Cc1ccccc1 [Benzyldimethyltetradecylammonium] | – | – | – | – | 204.79 | 17 |
| CCCOC(=O)c1ccc(O)cc1 [Propylparaben] | – | 140.81 | – | 12.9 | – | – |
| CCCCOCCOCCOCCO [Triethylene Glycol Monobutyl Ether] | 143.71 | – | 11.2 | – | – | – |
| CO/N=C(/C(=O)O)c1ccccc1CO/N=C(/C(=O)O)c1cccc(C(F)(F)F)c1 | 194.45 | – | 13.1 | – | – | – |
| CCOC1Oc2ccc(OS(C)(=O)=O)cc2C1(C)C (stereo not drawn) [Ethofumesate] | 166.62 | – | 13.8 | – | – | – |
| Cc1cccc(C)c1N(Cn1cccn1)C(=O)CO [Metazachlor-2-hydroxy] | 156.95 | – | 11.1 | – | – | – |
| O=C(O)CCCCCCCCC(=O)O [Sebacic acid] | 176.16 | 142.73 | 17 | 3.2 | – | – |
| Cc1cccc(C)c1NC(=O)CS(=O)(=O)O | 152.57 | 149.99 | 7.36 | 7.04 | – | – |
| C[C@H]1[C@H](C)CC[C@]2(C(=O)O)CC[C@]3(C)C(=CC[C@@H]4[C@@]5(C)CC[C@H](O)C(C)(C)[C@@H]5CC[C@]43C)[C@H]12 [Ursolic acid] | 208.26 | 219.38 | 18.4 | 17.6 | – | – |
| O=c1cc(-c2ccc(O)cc2)oc2cc(O[C@@H]3O[C@H](CO)[C@@H](O)[C@H](O)[C@H]3O[C@@H]3OC[C@](O)(CO)[C@H]3O)cc(O)c12 [Apiin] | 232.7 | 224.84 | 10.3 | 10.1 | – | – |
| CN/C(=C\[N+](=O)[O-])NCCSCc1ccc(CN(C)C)o1 [Ranitidine] | 168.6 | 181.06 | 6.09 | 10.1 | – | – |
| CCCc1cc(=O)[nH]c(=S)[nH]1 [6-Propyl-2-thiouracil] | – | 133.88 | – | 6.69 | – | – |
| CCCCNS(=O)(=O)c1ccccc1 [N-Butylbenzenesulfonamide] | – | 148.3 | – | 12.8 | – | – |
| C[C@H]1c2cccc(O)c2C(=O)C2=C(O)[C@]3(O)C(=O)C(C(N)=O)=C(O)[C@@H](N(C)C)[C@@H]3[C@@H](O)[C@@H]21 [Doxycycline] | – | 197.93 | – | 10.2 | – | – |
| CNC(=O)Oc1cc(C)c(S(C)(=O)=O)c(C)c1 [Methiocarb sulfone] | 162.89 | – | 9.59 | – | – | – |
| CC(C)COP(=O)(OCC(C)C)OCC(C)C [Tri-isobutylphosphate] | 165.01 | – | 16.3 | – | – | – |
| COc1ccc([C@@H]2Sc3ccccc3N(CCN(C)C)C(=O)[C@@H]2OC(C)=O)cc1 [Diltiazem] | 198.45 | – | 12.1 | – | – | – |
